Assays:
ovaries from day 10 mice = test: Ovarian explant cultures: ovarian weight and follicle dynamics; format: cell-based; conditions: for ovarian explant weights: explants from day 10 mice cultured with CCN growth factors for 4 days
Method: FIG. 2. […] A, Ovarian fragmentation increased F-actin levels. Paired ovaries from day 10 mice were cut into 3 pieces or kept intact before immunoblotting analyses of F- and G-actin levels (upper panel). Lower panel: F- to G-actin ratios. N=6-11. B, Ovarian fragmentation decreased phospho-YAP(pYAP) levels and pYAP to total YAP ratios. Paired ovaries with or without cutting were incubated for 1 h, followed by immunoblotting. Left panel: representative immunoblots; Right panel: ratios of different antigens. n=8 pairs. C, Ovarian fragmentation increased expression of CCN growth factors and BIRC apoptosis inhibitors. Paired ovaries with or without cutting were incubated for 1 h […] before analyses of transcript levels normalized by GAPDH. Intact ovaries: solid lines; pooled 3 pieces: dashed lines. n=10-15. D, Ovarian fragmentation increased CCN2 proteins. Paired ovaries with or without cutting were incubated for 3-5 h before immunoblotting. Upper panel: representative blots; lower panel: quantitative analyses. N=3-5. E, Treatment with CCN2, 3, 5, and 6 increased ovarian explant weights. Explants from day 10 mice were cultured with different CCN growth factors for 4 days before weighing. n=5-6. Mean±SEM; * p<0.05. IN=Intact; PI=Pieces.
FIG. 6. Increased expression of CCN growth factors and BIRO inhibitors after ovarian fragmentation and the ability of CCN growth factors to promote follicle development. A, Ovarian fragmentation without subsequent grafting increased the expression of key CCN growth factors (CCN2, 3, 5, and 6) and apoptosis inhibitors (BIRC1 and 7). Paired ovaries from day 10 mice with or without cutting into 3 pieces were incubated for up to 7 h before analyses of transcript levels for different genes. Intact ovaries: solid lines; three pieces: dashed lines. n=10-15. B, Increases in CCN2 expression in somatic cells of fragmented ovaries. Paired ovaries from day 10 mice with or without cutting into 3 pieces were cultured for 1 h and then transplanted under kidney capsules. At 3 h after transplantation, ovaries were dissected followed by isolation of oocytes and somatic cells as previously described (2). CCN2 and GAPDH mRNA levels were measured by real-time RT-PCR (n=4). *, P<0.05 vs intact. C. Treatment with CCN growth factors promoted preantral follicle development in ovarian explants. Following explant cultures with different CCN growth factors, follicle dynamics were determined by counting the percentages of follicles at different developmental stages. Mean±SEM; *p<0.05, n=5.
Ovaries from day 10 mice were placed on culture plate insert (Millipore) and cultured in DMEM/F12 containing 0.1% BSA, 0.1% Albumax II, insulin-transferrin-selenium, 0.05 mg/ml L-ascorbic acid and penicillin-streptomycin for 4 days with medium changes after 2 days of culture as described. At the end of culture, ovarian weight was measured and some of the ovaries were embedded for histological analyses of follicle dynamics.
We tested the ability of S1P to promote follicle growth. […] We hypothesized that S1P acts through its receptors in granulosa cells to trigger actin polymerization, disrupt Hippo signaling and promote follicle growth.

ovarian grafts = test: Ovarian grafting under kidney capsule of FSH-treated hosts: graft weights and follicle counting; format: in vivo, mice
Method: FIG. 3. Additive effects of Hippo signaling disruption and Akt stimulation promoted secondary follicle growth. A) Secondary follicles are responsive to IVA treatment. Secondary follicles (115 um in diameter) were isolated from mice at day 10 of age and cultured in vitro with the standard IVA protocol (first day with bPV(hopic) at 3 mM and 740YP at 15 ug/ml, followed by one more day with 740YP alone), followed by treatment with daily FSH (100 ng/ml) for two more days (IVA+FSH). The control groups were either treatment with media alone for four days or treated with the IVA reagent for two days followed by media alone (IVA alone). B) Ovarian fragmentation and IVA treatment led to additive effects on ovarian weight gain and secondary follicle growth. Paired ovaries from mice at day 10 of age were fragmented into three pieces. Fragments from one side were treated with the IVA protocol (bpV(hopic) at 30 uM and 740YP at 150 ng/ml for one day, followed by one more day with 740YP only) whereas fragments from the contralateral side were incubated in media alone. Ovarian fragments were then allo-transplanted into kidney capsules of adult ovariectomized mice with hosts injected with FSH (daily at 1 IU/animal). Five 5 days later, ovarian grafts were retrieved, fixed and weighted. Left panel: graft weights; right panel: Follicle dynamics of grafted ovarian fragments. Percentages of follicles at different stages were determined based on serial sections of grafts. C, Follicle dynamics before and after grafting of intact and fragmented murine ovaries with or without treatment with Akt stimulators. Left: total follicle numbers, Right: follicle dynamics. n=4. Same letter symbols indicate significant differences (p<0.05). D-F. Vitrified human cortical strips were thawed and fragmented into cubes before treatment with Akt stimulators for 2 days followed by grafting into immune-deficient mice for 4 weeks. D. Cortical strips before grafting. Arrow: a secondary follicle, arrowheads: primordial/primary follicles. Scale bar, 100 μm. E. A kidney graft in situ (left) and after isolation (right), showing an antral follicle. F. Histology of two large antral follicles with the side view of one showing an oocyte at the germinal vesicle stage (arrow). Scale bar, 1 mm. Mean±SEM; * p<0.05.
(§1) FIG. 7. Pre-treatment with verteporfin and CCN2 antibodies suppressed fragmentation-induced ovarian growth. A, Pretreatment with verteporfin suppressed fragmentation-induced increases in CCN2, but not AMH, transcript levels. Juvenile mice were injected i.p. with verteporfin for 3 h before retrieving ovaries for fragmentation. At 4 h after incubation, transcript levels for CCN2 and AMH were determined by real-time RT-PCR. n=6-12. […] Ovaries from juvenile mice pre-injected with verteporf in for 3 h were fragmented and incubated for 1 h before grafting into FSH-treated hosts for 5 days followed by determination of graft weights. Numbers in parentheses are number of samples used. C, Follicle dynamics of intact and fragmented ovarian grafts from animals with or without verteporf in (VP) pretreatment. n=3-5. D, Incubation of fragmented ovaries with CCN2 antibodies suppressed ovarian weight increases. Paired ovaries were fragmented into 3 pieces followed by incubation with CCN2 antibodies or non-immune-IgG for 18 h before grafting for 5 days. Mean±SEM; *p<0.05.
Left upper panel: Paired ovaries from day 10 mice were treated with or without JASP (10 μM) for 30 min. before analyses of F- and G-actin content. Left lower panel: Real-time RT-PCR analyses of CCN2 transcript levels after 30 min. exposure to JASP. Right panel: Immunoblotting analyses of CCN2 protein levels after 30 min. treatment with JASP. Upper panel: Immunoblotting analyses. Lower panel: quantitative analyses of densitometric scanning data. Numbers in parentheses are number of samples used. * p<0.05. […]

oocytes = conditions: intrabursal treatment; cited from earlier work
PTEN = PTEN (Homo sapiens, UniProt P60484); conditions: read-out: IC50, inhibits PTEN; cited from earlier work
CCN2 transcripts = test: Real-time RT-PCR of CCN2 transcripts after verteporfin pretreatment and ovarian fragmentation; format: in vivo; conditions: day 10 mice injected i.p. for 3 h before fragmentation; 4 h after incubation
Method: as §1
(§2) Roles of Hippo signaling and CCN2 in fragmentationinduced follicle growth: YAP has no transcriptional activity and its actions are dependent on downstream transcriptional factors. […]

AMH transcripts = test: Real-time RT-PCR of AMH transcripts after verteporfin pretreatment and ovarian fragmentation; format: in vivo; conditions: day 10 mice injected i.p. for 3 h before fragmentation; 4 h after incubation
Method: as §1, §2

[1] = pretreatment for 3 h, grafting 5 days

Chain of PTEN (P60484 whole entry, the tested form may be a part): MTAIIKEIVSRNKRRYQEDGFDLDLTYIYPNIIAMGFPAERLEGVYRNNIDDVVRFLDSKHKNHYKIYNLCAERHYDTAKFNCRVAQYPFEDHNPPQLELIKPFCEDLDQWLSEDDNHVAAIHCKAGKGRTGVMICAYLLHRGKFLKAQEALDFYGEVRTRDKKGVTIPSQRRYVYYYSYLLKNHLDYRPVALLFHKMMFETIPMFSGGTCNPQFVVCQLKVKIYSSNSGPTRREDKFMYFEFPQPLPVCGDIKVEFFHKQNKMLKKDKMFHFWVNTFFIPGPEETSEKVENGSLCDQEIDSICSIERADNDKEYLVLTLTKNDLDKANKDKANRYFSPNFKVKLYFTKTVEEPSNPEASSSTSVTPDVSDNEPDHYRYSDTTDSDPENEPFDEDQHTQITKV

CCCCCCCCCCCCC/C=C/[C@@H](O)[C@@H](N)COP(=O)(O)O [S1P, sphingosine 1-phosphate]
ovarian weights in explant culture (ovaries from day 10 mice; 6 μM, 4 days, ovaries from day 10 mice): major increases in ovarian weights
graft weights (ovarian grafts; 6 μM S1P for 18 h, grafting into adult ovariectomized hosts for 5 days): increases in graft weights
oocyte apoptosis induced by X-irradiation (oocytes): suppressed

O=C([O-])c1ccccn1.OO.OO.[K+].[K+].[OH-].[V] [dipotassium bisperoxo(picolinato)oxovanadate (V)]
IC50 (PTEN): 31 nM

OO.OO.[K+].[OH-].[V].c1cnc2c(c1)ccc1cccnc12 [potassium bisperoxo (1,10-phenanthroline)oxovanadate (V)]
IC50 (PTEN): 38 nM

dipotassium bisperoxo(5-hydroxypyridine-2-carboxyl)oxovanadate (V)
IC50 (PTEN): 14 nM

potassium bisperoxo(bipyridine)oxovanadate (V)
IC50 (PTEN): 18 nM

verteporfin
fragmentation-induced increases in CCN2 transcripts (CCN2 transcripts): blocked
transcripts for anti-Müllerian hormone (AMH) (AMH transcripts): without affecting
graft weights, intact versus fragmented pairs (ovarian grafts; pretreatment for 3 h, fragmentation, grafting into FSH-treated hosts for 5 days): no significant changes
antral/preovulatory follicles (ovarian grafts; [1]): smaller suppression
fragmentation induced increases in late secondary follicles (ovarian grafts; [1]): prevented
total follicles in grafts (ovarian grafts; [1]): no loss of total follicles

B1: CCN2: CCN growth factor protein, acts downstream of disrupted Hippo signaling (protein, UniProt P29279 27-349, looked up)
CCN family member 2: QNCSGPCRCPDEPAPRCPAGVSLVLDGCGCCRVCAKQLGELCTERDPCDPHKGLFCHFGSPANRKIGVCTAKDGAPCIFGGTVYRSGESFQSSCKYQCTCLDGAVGCMPLCSMDVRLPSPDCPFPRRVKLPGKCCEEWVCDEPKDQTVVGPALAAYRLEDTFGPDPTMIRANCLVQTTEWSACSKTCGMGISTRVTNDNASCRLEKQSRLCMVRPCEADLEENIKKGKKCIRTPKISKPIKFELSGCTSMKTYRAKFCGVCTDGRCCTPHRTTTLPVEFKCPDGEVMKKNMMFIKTCACHYNCPGDNDIFESLYYRKMYGDMA
ovarian explant weights (ovaries from day 10 mice): dose-dependent increases

B2: CCN3: CCN growth factor protein (protein, UniProt P48745 32-357, looked up)
CCN family member 3: TQRCPPQCPGRCPATPPTCAPGVRAVLDGCSCCLVCARQRGESCSDLEPCDESSGLYCDRSADPSNQTGICTAVEGDNCVFDGVIYRSGEKFQPSCKFQCTCRDGQIGCVPRCQLDVLLPEPNCPAPRKVEVPGECCEKWICGPDEEDSLGGLTLAAYRPEATLGVEVSDSSVNCIEQTTEWTACSKSCGMGFSTRVTNRNRQCEMLKQTRLCMVRPCEQEPEQPTDKKGKKCLRTKKSLKAIHLQFKNCTSLHTYKPRFCGVCSDGRCCTPHNTKTIQAEFQCSPGQIVKKPVMVIGTCTCHTNCPKNNEAFLQELELKTTRGKM
ovarian explant weights (ovaries from day 10 mice): dose-dependent increases

B3: CCN5: CCN growth factor protein (protein, UniProt O76076 24-250, looked up)
CCN family member 5: QLCPTPCTCPWPPPRCPLGVPLVLDGCGCCRVCARRLGEPCDQLHVCDASQGLVCQPGAGPGGRGALCLLAEDDSSCEVNGRLYREGETFQPHCSIRCRCEDGGFTCVPLCSEDVRLPSWDCPHPRRVEVLGKCCPEWVCGQGGGLGTQPLPAQGPQFSGLVSSLPPGVPCPEWSTAWGPCSTTCGLGMATRVSNQNRFCRLETQRRLCLSRPCPPSRGRSPQNSAF
ovarian explant weights (ovaries from day 10 mice): dose-dependent increases

B4: CCN6: CCN growth factor protein (protein, UniProt O95389 24-354, looked up)
Cellular communication …: TGPLDTTPEGRPGEVSDAPQRKQFCHWPCKCPQQKPRCPPGVSLVRDGCGCCKICAKQPGEICNEADLCDPHKGLYCDYSVDRPRYETGVCAYLVAVGCEFNQVHYHNGQVFQPNPLFSCLCVSGAIGCTPLFIPKLAGSHCSGAKGGKKSDQSNCSLEPLLQQLSTSYKTMPAYRNLPLIWKKKCLVQATKWTPCSRTCGMGISNRVTNENSNCEMRKEKRLCYIQPCDSNILKTIKIPKGKTCQPTFQLSKAEKFVFSGCSSTQSYKPTFCGICLDKRCCIPNKSKMITIQFDCPNEGSFKWKMLWITSCVCQRNCREPGDIFSELKIL
ovarian explant weights (ovaries from day 10 mice): dose-dependent increases

Reference: patent US20150231209A1, “STIMULATION OF OVARIAN FOLLICLE DEVELOPMENT AND OOCYTE MATURATION” (THE BOARD OF TRUSTEES OF THE LELAND STANFORD JUNIOR …, priority 2012, published 2015)
